Assay results: patent US20110166070A1, “METHOD OF PREVENTING PREMATURE DELIVERY” (priority 2008, published 2011)

What was measured:
uterine contractions = conditions: cited from earlier work; for stopping uterine contractions: vaginal progesterone, injection of 17 alpha-hydroxyprogesterone caproate
women = conditions: cited from earlier work
nonpregnant women = conditions: administered intravaginally, cited from earlier work
[1] = Serum relaxin concentrations (Relaxin ELISA); assay type: in vivo, human
Method: (§1) Eligible patients were admitted to the hospital at least 24-hours prior to scheduled induction. Either relaxin or matching placebo was administered by continuous intravenous infusion for 24 hours prior to induction. Subjects were monitored throughout the administration of study medication for blood pressure and heart rate, as well as for uterine contractions and the onset of labor. Fetal nonstress testing and heart rate monitoring were conducted for evaluation of fetal well-being. Blood samples were drawn for serum chemistry and hematology at baseline, 12 and 24 hr of dosing, and at 2 days, 1 week and 4 weeks after delivery. Samples for the evaluation of serum relaxin levels were drawn at baseline, 30 minutes, 1, 4, 6, 12, and 24 hr of dosing and a sample of cord blood was also drawn for relaxin measurement. A sample was also drawn from the study subject at 2 days post-delivery. Samples for measurement of development of anti-relaxin antibodies were drawn prior to dosing and at 1 and 4 weeks post-delivery. Neonates were evaluated for relaxin levels at 2 days and for the presence of anti-relaxin antibodies at 1 and 4 weeks.
Relaxin ELISA. The measurement of serum relaxin concentrations is based on an enzyme immunoassay technique using 96-well microtiter plates coated with affinity purified goat-anti-relaxin antibodies. Pre-diluted controls and unknown samples were pipetted into the wells of the microtiter plate and incubated at 2-8° C. allowing for any relaxin present to bind to the anti-relaxin antibodies. After an overnight incubation the plates were washed to remove any non-reactive serum components. […] After a 20-minute incubation, an aliquot of 2M sulfuric acid was added to stop the color reaction and the absorbance was measured at 450 nm (reference 650 nm) using a plate spectrophotometer. […] The relaxin levels were quantified according to a standard curve generated by measuring purified recombinant relaxin in a 20% human serum matrix utilizing a four-parameter curve fit equation. […]

[2] = system: healthy primiparous women at ≧40 weeks gestation; test: Clinical study: change from baseline in Bishop score and cervical dilation (cervical ripening), 24 h IV infusion; assay type: in vivo, human; parameters: key to Total Bishop Score - Change from Baseline, Minimum / Total Bishop Score - Change from Baseline, Maximum / Total Bishop Score - Change from Baseline, Mean / Total Bishop Score - Change from Baseline, Median: Bishop score points; total score ranges 0 to 13; conditions: for Total Bishop Score - Change from Baseline, Maximum / Total Bishop Score - Change from Baseline, Median / Total Bishop Score - Change from Baseline, Minimum / Total Bishop Score - Change from Baseline, Mean: 75 μg/kg/d IV, ITT
Method: Overview of the Clinical Study. The current study was designed with two objectives. The first was to determine the safety of intravenous administration of recombinant human relaxin in women at term for 24 hours. The second objective was to determine whether a high dose of relaxin administered by this method for 24 hours could ripen the cervix or induce labor. The primary efficacy endpoint was change from baseline in Bishop score, which is a composite, well accepted measurement of cervical ripening (Bishop, 1964). The score has 5 components, all of which contribute to the cervical changes necessary for vaginal delivery of the baby: dilation, effacement, station, consistency and position of cervix.
Study Subjects. Study subjects were healthy primiparous women at ≧40 weeks gestation who were admitted to the hospital for scheduled induction of labor. This study was conducted in compliance with the requirements of the protocol, International Conference on Harmonization (ICH), Good Clinical Practices (GCP), FDA, local regulations and BAS Medical, Inc.'s standard operating procedures (SOP). The investigators were responsible for obtaining informed consent from each patient participating in the study. All pertinent aspects of the study were explained to the patient before he or she signed the informed consent form. Informed consent was approved by local ethics committees and was obtained from the patient before any activity or treatment was undertaken which was not part of routine care. This included, but was not limited to, the performance of diagnostic or therapeutic procedures and the administration of the first dose of the study medication.
Part A was a multicenter, randomized, double-blind, placebo-controlled, dose escalation study of 18 subjects at ≧40 weeks gestation and who were scheduled for induction. Doses of 7.5, 25 and 75 mcg/kg/day of relaxin were tested. Subjects were treated in cohorts of 6 and randomly assigned to receive relaxin or placebo in a 4:2 ratio, respectively. Dose escalation to the next dose level occurred once safety data was reviewed.
as §1
(§2) Part B of the study was a multi-center, randomized, double-blind, placebo-controlled, parallel-group study of 50 subjects at ≧40 weeks gestation and who were scheduled for induction. Subjects were randomized in a 1:1 ratio to the most appropriate dose of relaxin determined from Part A or to placebo. As in Part A, eligible subjects were administered an intravenous infusion of relaxin or placebo for 24 hours prior to induction. Subjects and neonates were evaluated in a manner identical to that in Part A for all assessments.
The primary efficacy endpoint was change from baseline in Bishop score at 6, 12 and 24 hours (or end of study drug administration). […]

myometrium = conditions: in vitro, nonpregnant and pregnant uteri (MacLennan 1991); cited from earlier work
[3] = system: healthy primiparous women at ≧40 weeks gestation; test: Clinical study: secondary efficacy endpoints related to delivery; assay type: in vivo, human
Method: as §1, §2
The primary efficacy endpoint was change from baseline in Bishop score at 6, 12 and 24 hours (or end of study drug administration). The score ranges from 0 (absence of any cervical changes) to a maximum of 13, representing a cervix that is completely dilated (>5 cm), effaced (>80%), soft, at a +1 or +2 station, and anteriorly positioned (Bishop, 1964). A number of secondary efficacy endpoints were also explored: Time to complete dilation; proportion of subjects with Bishop score change>3; proportion of subjects with Bishop score>5; proportion of subjects with Bishop score>8; time to active labor; time to delivery (vaginal or c-section); frequency of uterine contractions; incidence of uterine hyperstimulation requiring terbutaline treatment or discontinuation of study drug (relaxin or placebo) infusion; incidence of spontaneous labor; rates of c-section; incidence of abnormal fetal heart rate tracings; changes from baseline in systolic and diastolic blood pressure; changes from baseline in serum creatinine and predicted creatinine clearance as determined by the Cockroft-Gault formula.
Statistical Analysis. Analyses were conducted on the Intent-to-treat (ITT) population, which consisted of all randomized subjects and on the Per-protocol (PP) population, which consisted of all randomized subjects who received study medication for at least 18 hours (75% compliance) and had baseline and 24 hour (or end of treatment) assessments of the Bishop Score. For efficacy comparisons, the patients from Part A that received the active dose administered in Part B are pooled with the patients from Part B (pooled relaxin group) as are all placebo patients from parts A and B (pooled placebo group).

[4] = system: healthy primiparous women at ≧40 weeks gestation; test: Clinical study: safety (adverse events in subjects, fetuses, neonates); assay type: in vivo, human; conditions: for Serious adverse events in neonates (number): none related to the study drug
Method: Safety. Safety was assessed by means of reported and observed adverse events, physical examination and 12-lead ECG findings, vital sign measurements, and the results of clinical laboratory assessments. Serum clinical chemistry samples were taken at pre-dose, 12 and 24 hours following the start of dosing, 2 days, 1 week and 4 weeks postpartum. Maternal vital signs included temperature, heart rate and blood pressure. These evaluations were performed at screening, pre-dose, during dosing, 24-48 hours post-dosing and at 2 days, 1 week and 4 weeks post-partum. Measurements during the 24-48 hours post-dosing period were taken at 28, 32, 36, 40, 44 and 48 hours. Neonatal vital signs included temperature, pulse, respiration and blood pressure. All vital signs measurements were done at delivery, 2 days, 1 week and 4 weeks post-partum.
Adverse events in study subjects were recorded according to the time of onset, i.e. dosing period (0-24 hours), 24-hours post-infusion (24-48 hours) and follow-up (>48 hours). Adverse events reported in fetuses and in neonates were also summarized by treatment group. For laboratory tests (hematology, serum chemistry, urinalysis), vital signs, physical examination and ECGs summary statistics were provided for baseline and changes from Baseline for each scheduled time by treatment group. Post-hoc repeated measure analyses of systolic and diastolic blood pressure were also performed.

[5] = Last Obs., pooled relaxin group
[6] = pooled relaxin group, p 0.153 vs placebo
[7] = pooled relaxin group, p 0.213 vs placebo

## CCCCCC(=O)O[C@]1(C(C)=O)CC[C@H]2[C@@H]3CCC4=CC(=O)CC[C@]4(C)[C@H]3CC[C@@]21C [17 alpha-hydroxyprogesterone caproate]
Uterine contractions; Meis et al. 2003, FDA advisory committees 2006
  safety questioned by the FDA: increase in miscarriage and fetal death
Uterine contractions
  stopping uterine contractions: effective in stopping uterine contractions

## CC(=O)[C@H]1CC[C@H]2[C@@H]3CCC4=CC(=O)CC[C@]4(C)[C@H]3CC[C@]12C [progesterone]
Uterine contractions
  stopping uterine contractions: effective in stopping uterine contractions

## porcine relaxin
women; intracervical gel vs placebo (MacLennan 1986)
  spontaneous labor: more likely to go into spontaneous labor
women; intracervical pellet, randomized double-blind controlled trial (Evans et al. 1983)
  cervical effacement and time to delivery: greater cervical effacement (thinning) and a shorter time to delivery

## relaxin
Nonpregnant women; nonpregnant women
  effect on cervical ripening: did not show any effect
Nonpregnant women
  safety of administration: safe and associated with minimal adverse side effects
  serum levels of relaxin after treatment: did not increase
[1]; 2 days post partum
  serum relaxin concentration post partum: just above levels of detection
[1]; relaxin group, 75 mcg/kg/day IV infusion, at 12 hours of dosing
  peak mean serum relaxin concentration: 13.0 ng/mL
[1]; relaxin group, baseline, reflecting endogenous relaxin levels
  Mean serum relaxin concentration at baseline: 0.293 ng/mL
[2]; 7.5 and 25 μg/kg/day, Part A, data not shown
  Total Bishop scores in the lower relaxin dose groups: no different than that seen in the pooled placebo group
[2]; 6 hours, pooled relaxin group
  Total Bishop Score - Change from Baseline, Maximum: 9
  Total Bishop Score - Change from Baseline, Median: 1.00
  Total Bishop Score - Change from Baseline, Minimum: 0
[2]; 6 hours, pooled relaxin group, P 0.2407 vs pooled placebo
  Total Bishop Score - Change from Baseline, Mean: 1.55
[2]; 12 hours, pooled relaxin group
  Total Bishop Score - Change from Baseline, Maximum: 7
  Total Bishop Score - Change from Baseline, Median: 2.00
  Total Bishop Score - Change from Baseline, Minimum: 0
[2]; 12 hours, pooled relaxin group, P 0.1085 vs pooled placebo
  Total Bishop Score - Change from Baseline, Mean: 2.11
[2]; 24 hour time point, pooled relaxin group 75 mcg/kg/day IV (placebo 1.39 cm)
  increase in cervical dilation from the initial dilation: 0.69 cm
[2]; 24 hours, pooled relaxin group
  Total Bishop Score - Change from Baseline, Maximum: 7
  Total Bishop Score - Change from Baseline, Median: 4.00
  Total Bishop Score - Change from Baseline, Minimum: 0
[2]; 24 hours, pooled relaxin group, P 0.2507 vs pooled placebo
  Total Bishop Score - Change from Baseline, Mean: 3.26
[2]; Last Obs. (last available value post-baseline), pooled relaxin group, P 0.4900 vs pooled placebo
  Total Bishop Score - Change from Baseline, Mean: 3.59
[2]; [5]
  Total Bishop Score - Change from Baseline, Maximum: 9
  Total Bishop Score - Change from Baseline, Median: 4.00
  Total Bishop Score - Change from Baseline, Minimum: 0
[2]; any of the observation times (6, 12, 24 hours)
  Bishop score, difference between pooled relaxin and placebo groups: no statistically significant differences
[2]; pooled relaxin group, p<0.024 by t-test
  cervical dilation compared to the placebo group: significantly reduced
myometrium
  effect on myometrial contractions: inhibits myometrial contractions of nonpregnant uteri, but does not affect the myometrium of pregnancy
[3]; pooled relaxin group, n = 20, p 0.644 vs placebo
  Time to Vaginal Delivery (mean + SD): 62 ± 40 h
[3]; pooled relaxin group, n = 26, p 0.412 vs placebo
  Time to Onset of Active Labor: 53 h
[3]; pooled relaxin group, n = 29, p 0.251 vs placebo
  Time to Delivery for Vaginal + C-section (mean + SD): 69 ± 40 h
[3]; [6]
  Incidence of Vaginal Deliveries: (69%)
  Incidence of Vaginal Deliveries (subjects/total): 20/29
[3]; [7]
  Incidence of Spontaneous Labor: (41%)
  Incidence of Spontaneous Labor (subjects/total): 12/29
[3]; relaxin infusion vs placebo
  effect on incidence or time to vaginal delivery, incidence of spontaneous labor or time to the onset of labor: did not significantly affect
[4]; 7.5 mcg/kg/d dose group
  Serious adverse events in neonates (number): one
[4]; intravenous, 7.5-75 mcg/kg/day, pregnant women at term
  adverse effects over the entire dosage range: no relevant adverse effects
[4]; pooled relaxin group (75 mcg/kg/day)
  Serious adverse events in neonates (number): 4
[4]; pooled relaxin group, fetal hypoxia of moderate severity, not related to the study drug
  Serious adverse events in fetuses (number of events): Two
[4]; relaxin treatment
  effect on fetal heart rate: no effect
